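Test compounds were applied to cells in 96-well plates for 48 hours at 5 doses. TGI marks complete inhibition of growth.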

Among the test systems are RPMI-8226 leukemia; MOLT-4 leukemia; OVCAR-3 ovarian; NCI-H522 lung; KM12 colon; HCT-116 colon; SW-620 colon; OVCAR-8 ovarian; SK-MEL-28 melanoma; 786-0 renal.
Holding throughout (test): inhibition of tumour cell growth, NCI panel, 48 h

For `CC1CC(=O)N(N(C)C)C(C#N)(C#N)C1(C#N)C#N` (stereo not given), the TGI in the experiment on RPMI-8226 leukemia is 32 µM; in the experiment on MOLT-4 leukemia, 5.04 µM; in the experiment with OVCAR-3 ovarian it was 44.6 µM; in the experiment with NCI-H522 lung, 7.73 µM; in the experiment with KM12 colon, above 64.9 µM; in the experiment with HCT-116 colon it was 51.7 µM. Besides, the TGI is 21.1 µM with SW-620 colon, 45.2 µM with OVCAR-8 ovarian, 34.3 µM in the experiment with SK-MEL-28 melanoma and 28.6 µM in the experiment with 786-0 renal.
As for `Cc1ccc(NC(=O)C(=O)CC(=O)c2sc(Nc3c(C)cccc3C)nc2C)cc1C`, the TGI with RPMI-8226 leukemia, with MOLT-4 leukemia, in the experiment on OVCAR-3 ovarian, with NCI-H522 lung, in the experiment with KM12 colon and in the experiment with HCT-116 colon was above 100 µM in each case. Also, the TGI with SW-620 colon, in the experiment with OVCAR-8 ovarian, with SK-MEL-28 melanoma and with 786-0 renal was above 100 µM throughout.
As to `CC(C)(C)N(Cc1ccc2c(c1)OCO2)C(=O)/C=C\Sc1ccccc1`, the TGI is above 100 µM in the experiment with RPMI-8226 leukemia; above 100 µM with MOLT-4 leukemia; above 100 µM in the experiment on OVCAR-3 ovarian; 59 µM with NCI-H522 lung; above 100 µM in the experiment on KM12 colon; above 100 µM with HCT-116 colon. Also, the TGI in the experiment on SW-620 colon, with OVCAR-8 ovarian, with SK-MEL-28 melanoma and in the experiment on 786-0 renal was above 100 µM throughout.
As to `CC(C)C1N(C)c2ccc(Cl)cc2[C@H]2c3ccccc3CCN12` (stereo not given in full), the TGI with RPMI-8226 leukemia was 79.8 µM; with MOLT-4 leukemia it was above 100 µM; in the experiment on OVCAR-3 ovarian, 70.3 µM; with NCI-H522 lung, 88.2 µM; in the experiment with KM12 colon, above 100 µM; in the experiment on HCT-116 colon, above 100 µM. Besides, the TGI with SW-620 colon, in the experiment on OVCAR-8 ovarian, with SK-MEL-28 melanoma and in the experiment with 786-0 renal was above 100 µM each time.
For `O=C1c2cn[nH]c2C(c2ccccc2)N1c1ccccc1` (stereo not given), the TGI in the experiment with RPMI-8226 leukemia, in the experiment with MOLT-4 leukemia, in the experiment with OVCAR-3 ovarian, with NCI-H522 lung, with KM12 colon and with HCT-116 colon was above 10 µM in each case. Further, the TGI in the experiment on SW-620 colon, in the experiment on OVCAR-8 ovarian, in the experiment with SK-MEL-28 melanoma and with 786-0 renal was above 10 µM throughout.
As for `C(=C\N1CCCCC1)/c1nnnn1-c1ccccc1`, the TGI in the experiment with RPMI-8226 leukemia was 59.6 µM; in the experiment on MOLT-4 leukemia, 41.9 µM; in the experiment with OVCAR-3 ovarian, 90.6 µM; in the experiment with NCI-H522 lung, above 100 µM; in the experiment with KM12 colon, above 100 µM; in the experiment on HCT-116 colon, above 100 µM. Also, the TGI in the experiment with SW-620 colon was above 100 µM; with OVCAR-8 ovarian it was 95 µM; in the experiment on SK-MEL-28 melanoma, above 100 µM; in the experiment on 786-0 renal, above 100 µM.
